This passage reports half-life results from PubChem BioAssay AID1508591.

For this series the following is noted: rat; liver microsomes; pH 7.4; 15.0 min; 1.0 µM.

`CCOc1ccccc1C(=O)Nc1ccncc1C(=O)Nc1cccc(S(=O)(=O)C(F)(F)F)c1` gave a half-life above 30 min.
The same measure for `CO[C@@H]1[C@H](N(C)C(=O)c2ccccc2)C[C@H]2O[C@]1(C)n1c3ccccc3c3c4c(c5c6ccccc6n2c5c31)C(=O)NC4`: 6.54 min; for `Cc1cnc(-c2ccccc2C(C)C)nc1NCC1CCN(c2cccnc2)CC1`: 3.9 min; for `CCOc1ccc(CCNC(=O)c2ccc(C(=O)c3ccccc3)cc2)cc1OCC`: 2.8 min.
The same measure for `COc1ccccc1NS(=O)(=O)c1cccc(NC(=O)c2[nH]c(C)c(C(C)=O)c2C)c1`: 4.7 min.
In turn, `CCOc1ccc(CCNC(=O)c2ccc3ccccc3n2)cc1OCC` returned a half-life of 1.7 min. Compared with the last compound, the half-life is about 2.8-fold lower.
The same measure for `Cc1ccc(NC(=O)CSc2ncc(S(=O)(=O)c3ccc(C(C)C)cc3)c(=O)[nH]2)cc1C`: 4.98 min; for `CC(=O)Nc1ccc(N[S+](=O)([O-])c2cccc(NC(=O)c3[nH]c(C)c(C(C)=O)c3C)c2)cc1`: above 30 min.
The same measure for `COc1ccc(CCNC(=O)c2cc3c(=O)n4ccccc4nc3n(CCCN3CCOCC3)c2=N)cc1`: 8.26 min; for `Cc1ccc(S(=O)(=O)Nc2cnccc2C(=O)Nc2nc(-c3cc4ccccc4o3)cs2)cc1`: 20 min.
The same measure for `CC(C)CN(C[C@@H](O)[C@H](Cc1ccccc1)NC(=O)O[C@@H]1CO[C@H]2OCC[C@H]21)S(=O)(=O)c1ccc(N)cc1`: 13.8 min; for `Cc1ccc(C(=O)Nc2nc3nc(-c4ccccc4)cc(=O)n3[nH]2)cc1`: above 30 min.
Regarding `Fc1cc(-c2nc(Nc3ccc(F)c(F)c3)c3ccccc3n2)ccn1`, the half-life is above 30 min.
The same measure for `COc1c(O)cc2c(c1OC)-c1ccc(SC)c(=O)cc1C(NC(C)=O)CC2` (stereo not drawn): above 30 min; for `Cc1cc(F)ccc1-c1nc(NCCN=C(N)NC#N)nc2c1ccc(=O)n2-c1c(F)cccc1F`: 5.23 min; for `Cc1cc(C)cc(C(=O)Nc2ccc3c(N4CCCC4)ncnc3c2)c1`: 8.23 min.
`CCn1c(-c2nonc2N)nc2cnc(Oc3cccc(NC(=O)c4ccc(OCCN5CCOCC5)cc4)c3)cc21` registered a half-life of 6.56 min. This half-life and that of the compound before are within 1.5-fold of each other.
In turn, `O=C(NCCCn1ccnc1)c1ccc(-c2ncc3cnc(-c4cccc(F)c4)cn23)cc1` came in with a half-life of 22.5 min.
For the compound `CC(=O)Nc1cccc(Nc2nc3ccccc3n3c(C)nnc23)c1`, the half-life is above 30 min.
`Oc1ccccc1CN1CCNc2cc(Nc3ccccc3)ncc2C1`: the half-life amounted to 1.79 min.
The same measure for `CC(C)Oc1cccc(-c2cnc(N3CCC(C(N)=O)CC3)s2)c1`: 23 min; for `Cn1c(=O)c2c(nc(Cl)n2Cc2ccc(Cl)cc2)n(C)c1=O`: above 30 min.
Regarding `CCOc1ccc(/C=C/c2nc3ccccc3n2S(=O)(=O)c2cccc(Cl)c2)cc1`, the half-life was above 30 min.
The same measure for `N#Cc1cccc(-c2csc(N3CCC(C(N)=O)CC3)n2)c1`: 1.74 min.
The same measure for `CC(=O)Nc1cccc(-c2csc(Nc3cc(C)ccn3)n2)c1`: above 30 min; for `CCN(CC)S(=O)(=O)c1ccc(N2CCOCC2)c(NC(=O)c2[nH]c(C)c(C(C)=O)c2C)c1`: 5.49 min; for `NC(=O)C1CCN(c2nc(-c3ccc4c(c3)OCCCO4)cs2)CC1`: 6.7 min.
The same measure for `CC1=NN(c2ccc(C(=O)O)cc2)C(=O)/C1=C/c1ccc(-c2cc(C)c(C)cc2[N+](=O)[O-])o1`: 22.2 min.
As to `CCN(CCCOc1ccc2c(Nc3cc(CC(=O)Nc4cccc(F)c4)[nH]n3)ncnc2c1)CCOP(=O)(O)O`, the half-life was above 30 min.
The same measure for `CNc1oc(-c2cccc(Cl)c2Cl)nc1C#N`: 9.65 min.
In the case of `COc1cccc(CNc2ccc(S(=O)(=O)Nc3nccs3)cc2)c1OC`, the half-life stood at 11 min.
The same measure for `CNC(=O)c1nn(C)c2c1C(C)(C)Cc1cnc(Nc3ccc(N4CCN(C)CC4)cc3)nc1-2`: above 30 min; for `Cc1noc(C)c1Cc1ccc(C(=O)N2CCc3c(nc4cc(-c5ccccc5)[nH]n4c3=O)C2)o1`: 3.38 min.
The same measure for `CCOc1ccccc1N1CC(c2nc3ccccc3n2CCOc2ccc(C(C)(C)C)cc2)CC1=O` (stereo not drawn): 2.34 min; for `O=S(=O)(Nc1nccs1)c1ccc(NCc2ccc(Br)cc2O)cc1`: 5.4 min.
The same measure for `CC1=C(C(=O)Nc2nnc(-c3ccccc3)s2)C(c2[nH]ncc2Cl)N=C(Nc2nc3ccccc3o2)N1` (stereo not drawn): 11 min; for `CCOP(=O)(Cc1ccc(C(=O)Nc2ccc(Br)cc2C#N)cc1)OCC`: above 30 min; for `Cc1ccc2oc3c(c(=O)c2c1)C(c1ccc(O)cc1)N(CCCN(C)C)C3=O` (stereo not drawn): above 30 min.
Compound `CCOc1ccc(NC(=O)c2nc(S(=O)(=O)Cc3ccccc3F)ncc2Cl)cc1` gave a half-life of 1.43 min.
Consider `COc1cccc(Cn2c(=O)n(-c3cccc(Cl)c3C)c(=O)c3c4c(sc32)CN(C(C)=O)CC4)c1`, for which the half-life was 3.17 min.
The same measure for `Cc1ccc(S(=O)(=O)Nc2ccccc2C(=O)Nc2nccs2)cc1`: 1.6 min.
Regarding `CCOc1ccc(CCNC(=O)c2cccc(C(=O)c3ccccc3)c2)cc1OCC`, the half-life was determined as 1.66 min. The half-life values of the last two compounds are within 1.5-fold of each other.
As for `O=C(CCCN1CCC(O)(c2cccc(C(F)(F)F)c2)CC1)c1ccc(F)cc1`, the half-life was determined as 20.5 min.
The same measure for `Clc1ccccc1Nc1nc(-c2ccncc2)nc2ccccc12`: 11 min.
With `CCN(c1ccccc1)S(=O)(=O)c1c(C)nc2scc(C)n2c1=O`, the half-life stood at 1.7 min.
The same measure for `CC(C)Oc1ccc(CCNC(=O)c2cc3sccc3n2Cc2ccccc2)cc1OC(C)C`: 2.7 min.
The same measure for `COC(=O)Nc1nc2ccc(SC(C)C)cc2[nH]1`: 9.99 min; for `COC(=O)[C@@H]1C[C@H](OC(C)=O)C(=O)[C@H]2[C@@]1(C)CCC1C(=O)O[C@H](c3ccoc3)C[C@@]12C` (stereo partly drawn): 9.8 min; for `CCNc1oc(-c2cccc3ccccc23)nc1C#N`: 13 min.
The same measure for `CCOc1ccc(CCNC(=O)c2ccnn2Cc2cccc(C)c2)cc1OCC`: 1.5 min; for `Fc1cc(Nc2nc(-c3ccncc3)nc3ccccc23)ccc1-c1cccc(OC(F)F)c1`: above 30 min; for `CC(=O)c1ccc(-c2csc(N3CCC(C(N)=O)CC3)n2)cc1`: 4.4 min.
Compound `CN(C)c1cccc(-c2nnc(N3CCC(C(N)=O)CC3)s2)c1` had a half-life of 15.7 min.
On to `CCc1ccc(NC(=O)CSC2=Nc3ccccc3C3=NC(CC(=O)NCc4ccc5c(c4)OCO5)C(=O)N23)cc1` (stereo not drawn), for which the half-life is 2.86 min.
The same measure for `COCCNC(=O)c1ccc(-c2ccc(N3CCCCC3)nc2)cc1`: 3.26 min.
The same measure for `O=C1Nc2ccccc2/C1=C\c1ccc(O)c(F)c1`: 20 min.
The same measure for `COc1ccccc1-c1nnc2sc(-c3ccc(N(C)C)cc3)nn12`: 2.24 min; for `O=C(CCc1ccccc1)Nc1ccc(S(=O)(=O)Nc2nccs2)cc1`: above 30 min; for `COc1ccc(C(=O)N[C@@H]2CCC[C@@H]2C(=O)N2CCC(Cc3ccccc3)CC2)cc1`: 2.66 min.
Regarding `CC(=O)c1c(C)c(C(=O)Nc2cccc([S+](=O)([O-])N(C)C)c2)n(C)c1C`, the half-life came to 15 min.
The same measure for `Cc1nn(CC(=O)NCCCN2CCC(N3CCCCC3)CC2)c(=O)c2cc(-c3ccccc3)nn12`: 13 min.
The same measure for `O=C(Nc1ccc(C(=O)Nc2nccs2)cc1)c1ccc2ccccc2c1`: 23 min; for `O=C(NC1CCCN(c2cc(-c3ccc(F)cc3)[nH]n2)C1)c1ccc2ncccc2c1` (stereo not drawn): 16.2 min.
